Results taken from patent US8742106B2 (Novartis AG, priority 2009, dated 2014).

Assays:
human orexin 1 receptors [1] = biological target: T1, human orexin 1 receptors (Homo sapiens (Human), UniProt O43613); experiment: Radioligand Binding Assay I ([125I]orexin A competition, cell membranes); details: read-out: binding I hOx1R Kd
Procedure: (§1) Radioligand Binding Assay I
(§2) For crude cell membrane preparations, cells (CHO, Chinese hamster ovary or HEK, human embryonic kidney) expressing human orexin 1 or human orexin 2 receptors, were washed with HEPES (10 mM, pH 7.5), scraped off the culture plates with the same buffer, and centrifuged at 4° C. for 5 min at 2500×g. The cell pellet was either stored at −80° C. or used directly. Before the experiments, cell membranes were re-suspended in binding assay buffer (10 mM HEPES, 0.5% (w/v) bovine serum albumin, pH 7.5) by homogenisation with a Polytron homogeniser at 50 Hz for 20 s. Cell membranes were also used as made available by commercial providers.
(§3) In initial saturation experiments (to calculate Bmax), cell homogenates (150 μl) were incubated with 25-300 pM of the radioligand ([^125I]orexin A, 50 μl), 8 concentrations in triplicates in the presence or absence Orexin A (1 μM, 50 μl) to define non specific binding. Bound radioactivity was measured, and data were analysed with the program XLFIT or Graphpad Prism. Protein concentration was determined according to the Bradford/BioRad Protein Assay Kit.
(§4) In competition experiments, cell homogenates (150 μl) were incubated in assay buffer (10 mM HEPES, pH 7.5, 0.5% (w/v) bovine serum albumin, 5 mM MgCl2, 1 mM CaCl2, and tween 0.05%) for 1 h at room temperature with about 100 pM of the radioligand ([^125I]orexin A, 2100 Ci/mmole, 50 μl), and with various concentrations of compounds of the invention (50 μl) in triplicates; non-specific binding was determined in the presence of Orexin A (1 μM). Reactions were terminated by vacuum filtration, 3 washes of ice cold wash buffer (Tris-HCl pH 7.4/10 mM, with NaCl 154 mM).

human orexin 2 receptors [2] = biological target: T2, human orexin 2 receptors (Homo sapiens (Human), UniProt O43614); experiment: as above; details: read-out: binding I hOx2R Kd
T2 sequence (O43614 whole entry): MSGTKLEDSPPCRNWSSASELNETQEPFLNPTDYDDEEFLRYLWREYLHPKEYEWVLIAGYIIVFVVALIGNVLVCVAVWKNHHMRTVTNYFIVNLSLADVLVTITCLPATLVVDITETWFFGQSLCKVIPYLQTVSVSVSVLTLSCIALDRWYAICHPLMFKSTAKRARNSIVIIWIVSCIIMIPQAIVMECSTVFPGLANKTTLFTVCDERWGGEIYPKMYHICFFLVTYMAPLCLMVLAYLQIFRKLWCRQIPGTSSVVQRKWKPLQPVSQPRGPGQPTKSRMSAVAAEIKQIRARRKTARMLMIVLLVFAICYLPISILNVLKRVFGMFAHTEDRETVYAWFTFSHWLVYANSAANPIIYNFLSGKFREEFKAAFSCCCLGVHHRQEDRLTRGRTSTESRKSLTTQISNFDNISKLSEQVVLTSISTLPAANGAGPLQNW
Procedure: as §1, §2, §3, §4

human orexin 1 receptors [3] = biological target: T1, human orexin 1 receptors; experiment: Calcium Accumulation in Cells (FLIPR), antagonism of orexin A; format: cell-based; details: antagonism of orexin A, Cheng-Prusoff corrected; read-out: FLIPR hOx1R Ki
human orexin 2 receptors [4] = biological target: T2, human orexin 2 receptors; experiment: as above; format: cell-based; details: antagonism of orexin A, Cheng-Prusoff corrected; read-out: FLIPR hOx2R Ki
Outline: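 Cells expressing human orexin 2 receptor, loaded with Fluo4-AM (2 μM) plus probenecid (0.1 mM) for 1 h, then washed. Antagonism read as inhibition of the orexin A calcium fluorescence signal (FLIPR).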

human orexin 1 receptors [5] = biological target: T1, human orexin 1 receptors; experiment: Radioligand Binding Assay II ([3H]-SB649868 competition, cell membranes); details: read-out: binding II hOx1R Kd
Outline: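 Membranes from CHO or HEK cells expressing human orexin 1 or orexin 2 receptors incubated 1 h at room temperature with about 1 nM [3H]-SB649868 and compound (triplicates) in HEPES pH 7.5 buffer with BSA, MgCl2, CaCl2, tween. Nonspecific binding defined with 10 μM almorexant; filtration read-out, Kd reported.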

human orexin 2 receptors [6] = biological target: T2, human orexin 2 receptors; experiment: as above; details: read-out: binding II hOx2R Kd
Procedure: Radioligand Binding Assay II
as §2
Bound radioactivity was measured, and data were analysed with the program XLFIT or Graphpad Prism. Protein concentration was determined according to the Bradford/BioRad Protein Assay Kit.
as §4, with “1 nM” for “100 pM”, “[^3H]-SB649868, 66” for “([^125I]orexin A, 2100”, “almorexant (10” for “Orexin A (1”

T1 sequence (O43613 whole entry): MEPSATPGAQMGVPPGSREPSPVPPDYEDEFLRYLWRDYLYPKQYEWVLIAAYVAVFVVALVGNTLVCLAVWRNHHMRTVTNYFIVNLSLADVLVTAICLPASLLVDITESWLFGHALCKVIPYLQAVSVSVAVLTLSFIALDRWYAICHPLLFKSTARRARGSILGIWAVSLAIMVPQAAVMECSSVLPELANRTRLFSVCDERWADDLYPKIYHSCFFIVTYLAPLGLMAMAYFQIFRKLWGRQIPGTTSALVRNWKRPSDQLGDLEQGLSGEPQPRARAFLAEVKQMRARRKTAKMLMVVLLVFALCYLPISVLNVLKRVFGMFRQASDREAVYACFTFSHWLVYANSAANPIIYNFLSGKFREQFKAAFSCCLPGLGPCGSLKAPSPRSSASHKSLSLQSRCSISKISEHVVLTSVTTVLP

| Structure (SMILES) | Kd (human orexin 1 receptors [1]) | Kd (human orexin 2 receptors [2]) | Ki (human orexin 1 receptors [3]) | Ki (human orexin 2 receptors [4]) | Kd (human orexin 1 receptors [5]) | Kd (human orexin 2 receptors [6]) |
| --- | --- | --- | --- | --- | --- | --- |
| CC(Oc1cc(C(F)(F)F)c2c(-c3ccccc3)nn(C)c2n1)C(=O)N[C@@H](C)c1ccccc1 (single isomer, unassigned) [Example 1.73] | 225 nM | 162 nM | 226 nM | 91 nM | – | – |
| C[C@H](NC(=O)COc1cc(C(F)(F)F)c2c(-c3ccccc3F)nn(C)c2n1)c1ccccc1 [Example 1.1, (S)-2-(3-(2-fluorophenyl)-1-methyl-4-(trifluoromethyl)-1H-pyrazolo[3,4-b]pyridin-6-yloxy)-N-(1-phenylethyl)acetamide] | 185 nM | 79 nM | 156 nM | 30 nM | – | – |
| Cc1cc(OCC(=O)N[C@@H](C)c2ccccc2)nc2c1c(-c1ccccc1)nn2C [Example 1.13, (S)-2-(1,4-dimethyl-3-phenyl-1H-pyrazolo[3,4-b]pyridin-6-yloxy)-N-(1-phenylethyl)acetamide] | 45 nM | 143 nM | 181 nM | 233 nM | – | – |
| Cc1cc(OCC(=O)NC(C)CCc2ccccc2)nc2c1c(-c1ccccc1)nn2C (centres unmarked) [Example 1.16, 2-(1,4-dimethyl-3-phenyl-1H-pyrazolo[3,4-b]pyridin 6-yloxy)-N-(4-phenylbutan-2-yl)acetamide] | 116 nM | 28 nM | 456 nM | 49 nM | – | – |
| C[C@H](NC(=O)COc1cc(C(F)(F)F)c2c(-c3ccccc3)nn(C)c2n1)c1ccccc1 [Example 1.17, (S)-2-(1-methyl-3-phenyl-4-(trifluoromethyl)-1H-pyrazolo[3,4-b]pyridin-6-yloxy)-N-(1-phenylethyl)acetamide] | 64 nM | 121 nM | 175 nM | 108 nM | – | – |
| CC(NC(=O)COc1cc(C(F)(F)F)c2c(-c3ccccc3)nn(C)c2n1)c1ccccc1 (centres unmarked) [Example 1.18, 2-(1-methyl-3-phenyl-4-(trifluoromethyl)-1H-pyrazolo[3,4-b]pyridin-6-yloxy)-N-(1-phenylethyl)acetamide] | 36 nM | 63 nM | 48 nM | 26 nM | – | – |
| COc1cccc(-c2nn(C)c3nc(OCC(=O)N[C@@H](C)c4ccccc4)cc(C(F)(F)F)c23)c1 [Example 1.19, (S)-2-(3-(3-methoxyphenyl)-1-methyl-4-(trifluoromethyl)-1H-pyrazolo[3,4-b]pyridin-6-yloxy)-N-(1-phenylethyl)acetamide] | 101 nM | 855 nM | 108 nM | 187 nM | – | – |
| COc1ccc(-c2nn(C)c3nc(OCC(=O)N[C@@H](C)c4ccccc4)cc(C(F)(F)F)c23)cc1 [Example 1.20] | 299 nM | 187 nM | 378 nM | 76 nM | – | – |
| C[C@H](NC(=O)COc1cc(C(F)(F)F)c2c(-c3cccc(F)c3)nn(C)c2n1)c1ccccc1 [Example 1.22, (S)-2-(3-(3-fluorophenyl)-1-methyl-4-(trifluoromethyl)-1H-pyrazolo[3,4-b]pyridin-6-yloxy)-N-(1-phenylethyl)acetamide] | 88 nM | 94 nM | 107 nM | 50 nM | – | – |
| C[C@H](NC(=O)COc1cc(C(F)(F)F)c2c(-c3ccc(F)cc3)nn(C)c2n1)c1ccccc1 [Example 1.23, (S)-2-(3-(4-fluorophenyl)-1-methyl-4-(trifluoromethyl)-1H-pyrazolo[3,4-b]pyridin-6-yloxy)-N-(1-phenylethyl)acetamide] | 131 nM | 278 nM | 128 nM | 136 nM | – | – |
| Cc1cccc(-c2nn(C)c3nc(OCC(=O)N[C@@H](C)c4ccccc4)cc(C(F)(F)F)c23)c1 [Example 1.24, (S)-2-(1-methyl-3-m-tolyl-4-(trifluoromethyl)-1H-pyrazolo[3,4-b]pyridin-6-yloxy)-N-(1-phenylethyl)acetamide] | 48 nM | 153 nM | 54 nM | 87 nM | – | – |
| Cc1ccc(CNC(=O)COc2cc(C(F)(F)F)c3c(-c4ccccc4)nn(C)c3n2)cc1 [Example 1.32, 2-(1-methyl-3-phenyl-4-(trifluoromethyl)-1H-pyrazolo[3,4-b]pyridin-6-yloxy)-N-(4-methylbenzyl)acetamide] | 2600 nM | 1380 nM | 851 nM | 115 nM | – | – |
| CCn1nccc1C(C)NC(=O)COc1cc(C(F)(F)F)c2c(-c3ccccc3)nn(C)c2n1 (centres unmarked) [Example 1.39, N-(1-(1-ethyl-1H-pyrazol-5-yl)ethyl)-2-(1-methyl-3-phenyl-4-(trifluoromethyl)-1H-pyrazolo[3,4-b]pyridin-6-yloxy)acetamide] | 330 nM | 1130 nM | 222 nM | 353 nM | – | – |
| Cc1ccc2c(n1)CCC2NC(=O)COc1cc(C)c2c(C3CC3)nn(C)c2n1 (centres unmarked) [Example 6.61, 2-(3-cyclopropyl-1,4-dimethyl-1H-pyrazolo[3,4-b]pyridin-6-yloxy)-N-(2-methyl-6,7-dihydro-5H-cyclopenta[b]pyridin-5-yl)acetamide] | – | – | 227 nM | 93 nM | 157 nM | 159 nM |
| Cc1ccc2c(n1)CC[C@@H]2NC(=O)COc1cc(C)c2c(C3CC3)nn(C)c2n1 [Example 6.63, (S)-2-(3-cyclopropyl-1H-dimethyl-1H-pyrazolo[3,4-b]pyridin-6-yloxy)-N-(2-methyl-6,7-dihydro-5H-cyclopenta[b]pyridin-5-yl)acetamide] | – | – | 109 nM | 22 nM | 54 nM | 42 nM |
| CCOc1ccc2c(c1)CC[C@@H]2NC(=O)COc1cc(C)c2c(C3CC3)nn(C)c2n1 [Example 6.68, (S)-2-(3-cyclopropyl-1,4-dimethyl-1H-pyrazolo[3,4-b]pyridin-6-yloxy)-N-(5-ethoxy-2,3-dihydro-1H-inden-1-yl)acetamide] | – | – | 71 nM | 151 nM | 52 nM | 317 nM |
| Cc1ccc2c(n1)CC[C@@H]2NC(=O)COc1cc(C(F)(F)F)c2c(-c3cc(C)oc3C)nn(C)c2n1 [Example 6.79, (S)-2-(3-(2,5-dimethylfuran-3-yl)-1-methyl-4-(trifluoromethyl)-1H-pyrazolo[3,4-b]pyridin-6-yloxy)-N-(2-methyl-6,7-dihydro-5H-cyclopenta[b]pyridin-5-yl)acetamide] | – | – | 23 nM | 7 nM | 34 nM | 90 nM |
| COc1ccc([C@H](C)NC(=O)COc2cc(C(F)(F)F)c3c(-c4cc(C)oc4C)nn(C)c3n2)cc1 [Example 6.80, (S)-2-(3-(2,5-dimethylfuran-3-yl)-1-methyl-4-(trifluoromethyl)-1H-pyrazolo[3,4-b]pyridin-6-yloxy)-N-(1-(4-methoxyphenyl)ethyl)acetamide] | – | – | 6 nM | 7 nM | 12 nM | 32 nM |
| COc1cc2c(cc1OC)C(NC(=O)COc1cc(C)c3c(C4CC4)nn(C)c3n1)CC2 (centres unmarked) [Example 7.1, 2-(3-cyclopropyl-1,4-dimethyl-1H-pyrazolo[3,4-b]pyridin-6-yloxy)-N-(5,6-dimethoxy-2,3-dihydro-1H-inden-1-yl)acetamide] | – | – | 140 nM | 52 nM | 55 nM | 65 nM |
| Cc1ccc([C@H](C)NC(=O)COc2cc(C)c3c(C4CC4)nn(C)c3n2)cc1 [Example 7.11, (S)-2-(3-cyclopropyl-1,4-dimethyl-1H-pyrazolo[3,4-b]pyridin-6-yloxy)-N-(1-p-tolylethyl)acetamide] | – | – | 50 nM | 24 nM | 18 nM | 17 nM |
